Experimental findings from ChEMBL document CHEMBL1201862, “PubChem BioAssay data set” (2004) are described below.

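Growth conditions: 96-well plates. Treatment: test compound, 48 hours, 5 concentrations. Analysis: linear interpolation between bracketing concentrations; unreached endpoints set to highest concentration. GI50 is the concentration that inhibits growth by half.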 Activity calls are given as the source filed them. Rule as the data show it: active = GI50 up to about 1.1 µM and inactive = higher.

Some test systems named below: MDA-MB-435; OVCAR-5; OVCAR-4; OVCAR-3; TK-10; NCI-H460; SNB-75; MDA-N; SN12C; EKVX; NCI-H226; ACHN; U-251; LOX IMVI; NCI-H522; SF-539; NCI-H23; HL-60; A498; MDA-MB-231.
Common to all, as to test: NCI-60 cell line screen, 48 h

In the case of `COc1cccc(C2c3cc4c(cc3OC(N3CCCC3)C2C)OCO4)c1O` (stereo unspecified), the GI50 with MDA-MB-435 was 1.64 µM (inactive); with OVCAR-5 it was 11.3 µM (inactive); in the assay on OVCAR-4, 9.35 µM (inactive); with OVCAR-3, 2.77 µM (inactive); in the assay with TK-10 it was 3.99 µM (inactive); with NCI-H460, 4.6 µM (inactive). The GI50 with SNB-75 was 2.4 µM (inactive); in the assay with MDA-N it was 1.64 µM (inactive); in the assay with SN12C it was 4.84 µM (inactive); in the assay with EKVX, 9.68 µM (inactive); with NCI-H226, 4.53 µM (inactive); with ACHN it was 6.59 µM (inactive). Besides, the GI50 in the assay with U-251 was 3.49 µM (inactive); in the assay with LOX IMVI it was 5.56 µM (inactive); in the assay with NCI-H522 it was 4.44 µM (inactive); in the assay with SF-539, 3.03 µM (inactive); with NCI-H23 it was 4.08 µM (inactive); in the assay with HL-60, 11.3 µM (inactive). The figures for the GI50 with A498 and with MDA-MB-231 were 4.89 µM (inactive) and 8.02 µM (inactive), respectively.
On to `COc1ccc(/C=C/c2ccnc3ccccc23)c(OC)c1`, for which the GI50 was 2.36 µM (inactive) in the assay on MDA-MB-435; > 10 µM (inactive) with OVCAR-5; > 10 µM (inactive) in the assay on OVCAR-4; > 10 µM (inactive) in the assay on OVCAR-3; > 10 µM (inactive) in the assay with TK-10; 6.05 µM (inactive) with NCI-H460. For the same molecule, the GI50 is 4.23 µM (inactive) in the assay on SNB-75; 3.41 µM (inactive) in the assay with MDA-N; > 10 µM (inactive) in the assay on SN12C; 5.19 µM (inactive) in the assay with EKVX; 4.51 µM (inactive) in the assay with NCI-H226; 9.75 µM (inactive) in the assay with ACHN. In addition, the GI50 in the assay with U-251 is 9.02 µM (inactive); with LOX IMVI, 7.71 µM (inactive); with NCI-H522, 6.62 µM (inactive); with SF-539 it was 4.34 µM (inactive); in the assay on HL-60, 3.61 µM (inactive); with A498 it was 7.87 µM (inactive). In the assay on MDA-MB-231, the GI50 was 4.17 µM (inactive).
As to `CCOC(=O)Cn1sc2ncc([N+](=O)[O-])cc2c1=O`, the GI50 in the assay on MDA-MB-435 is 16.2 µM (inactive); in the assay on OVCAR-5, 19.2 µM (inactive); in the assay on OVCAR-4 it was 18.8 µM (inactive); with OVCAR-3 it was 16.8 µM (inactive); with TK-10 it was 17.9 µM (inactive); in the assay on NCI-H460, 17.1 µM (inactive). Also, the GI50 in the assay on SNB-75 was 39.5 µM (inactive); in the assay on MDA-N, 12.4 µM (inactive); in the assay on SN12C, 16.6 µM (inactive); in the assay on EKVX, 27.9 µM (inactive); in the assay with NCI-H226, > 100 µM (inactive); with ACHN, 15.9 µM (inactive). In addition, the GI50 in the assay with LOX IMVI was 13.6 µM (inactive); in the assay on NCI-H522 it was 18.8 µM (inactive); with SF-539, 19.5 µM (inactive); with NCI-H23, 17.9 µM (inactive); in the assay on HL-60, 8.15 µM (inactive); with A498 it was > 100 µM (inactive). Further, in the assay with MDA-MB-231, the GI50 was 15.7 µM (inactive).
For `CCOC(=O)NC(Nc1ccc(C)cc1)(C(F)(F)F)C(F)(F)F`, the GI50 in the assay on MDA-MB-435, in the assay on OVCAR-5, in the assay on OVCAR-4, in the assay on OVCAR-3, with TK-10 and in the assay with NCI-H460 was > 100 µM (inactive) each time. Besides, the GI50 in the assay with SNB-75, in the assay with MDA-N, with SN12C, in the assay with NCI-H226, in the assay with ACHN and in the assay on U-251 was > 100 µM (inactive) throughout. Moreover, the GI50 with LOX IMVI, with NCI-H522, in the assay on SF-539, with NCI-H23, in the assay with HL-60 and in the assay on A498 was > 100 µM (inactive) each time. The GI50 in the assay on MDA-MB-231 is > 100 µM (inactive).
`CC(C)(C)C(O)CC(O)(C(F)(F)F)C(F)(F)F` (stereo unspecified): the GI50 with MDA-MB-435, in the assay with OVCAR-5, with OVCAR-4, with OVCAR-3, in the assay with TK-10 and in the assay with NCI-H460 was > 100 µM (inactive) each time. Further, the GI50 in the assay on SNB-75 is 56.9 µM (inactive); in the assay with MDA-N, > 100 µM (inactive); in the assay with SN12C, > 100 µM (inactive); in the assay on EKVX, > 100 µM (inactive); in the assay on NCI-H226 it was > 100 µM (inactive); in the assay with ACHN, > 100 µM (inactive). Also, the GI50 with U-251, in the assay on LOX IMVI, in the assay on NCI-H522, in the assay with SF-539, with NCI-H23 and in the assay on HL-60 was > 100 µM (inactive) each time. The GI50 with A498 and in the assay with MDA-MB-231 was > 100 µM (inactive) throughout.
Consider `C=CC(=O)c1ccc2c(c1)OCCOCCOCCOCCOCCO2`, for which the GI50 with MDA-MB-435 was 19.5 µM (inactive); in the assay with OVCAR-5, 33.4 µM (inactive); with OVCAR-4, 20.3 µM (inactive); in the assay with OVCAR-3, 19.7 µM (inactive); in the assay with TK-10 it was 17 µM (inactive); with NCI-H460, > 100 µM (inactive). Also, the GI50 with SNB-75 is > 49.3 µM (inactive); in the assay with MDA-N, 39.2 µM (inactive); in the assay on SN12C, 23.8 µM (inactive); in the assay on EKVX, 24 µM (inactive); in the assay with NCI-H226, > 100 µM (inactive); in the assay on ACHN it was 17.7 µM (inactive). Besides, the GI50 was > 57.5 µM (inactive) in the assay on U-251; 17.7 µM (inactive) in the assay with LOX IMVI; 9.48 µM (inactive) with NCI-H522; 17.7 µM (inactive) with SF-539; > 44.4 µM (inactive) in the assay on NCI-H23; > 58.6 µM (inactive) in the assay on HL-60. Besides, the figures for the GI50 with A498 and with MDA-MB-231 were > 100 µM (inactive) and 21.3 µM (inactive), respectively.
With `CCOC(=O)CCC(NC(=O)c1ccc(Oc2nc3c(N)cc(C(F)(F)F)cc3nc2-c2ccccc2)cc1)C(=O)OCC` (stereo unspecified), the GI50 with MDA-MB-435 is 59.8 µM (inactive); in the assay with OVCAR-4, 19.2 µM (inactive); in the assay on OVCAR-3, 3.53 µM (inactive); with TK-10 it was 14.6 µM (inactive); with NCI-H460 it was 54.3 µM (inactive); in the assay on SNB-75, 5.05 µM (inactive). For the same molecule, the GI50 in the assay on MDA-N is 63.1 µM (inactive); with SN12C it was 45.9 µM (inactive); in the assay with EKVX, 47.1 µM (inactive); in the assay on NCI-H226, 2.76 µM (inactive); in the assay on ACHN, 8.24 µM (inactive); in the assay on U-251 it was 32.6 µM (inactive). Moreover, the GI50 in the assay with LOX IMVI was > 27.1 µM (inactive); in the assay with NCI-H522, 5.96 µM (inactive); in the assay with SF-539, 1.67 µM (inactive); in the assay with NCI-H23, 21.3 µM (inactive); in the assay with HL-60, 38.8 µM (inactive); in the assay on A498, > 35.5 µM (inactive). Besides, the GI50 in the assay on MDA-MB-231 was 19 µM (inactive).
`CC(=O)NC1C(OCc2ccccc2)OC(CO)C(O)C1OC(C)C(=O)NC(C)C(=O)NC(CCC(=O)NCCCCNc1c2ccccc2nc2cccc([N+](=O)[O-])c12)C(N)=O` (stereo unspecified): the GI50 is 0.0325 µM (active) in the assay on MDA-MB-435; 0.336 µM (active) in the assay with OVCAR-5; 0.242 µM (active) in the assay on OVCAR-4; 0.139 µM (active) with OVCAR-3; 0.0202 µM (active) in the assay with TK-10; 0.00445 µM (active) in the assay on NCI-H460. In addition, the GI50 with SNB-75 is 0.18 µM (active); in the assay with MDA-N, 0.0232 µM (active); in the assay on SN12C, 0.0284 µM (active); with EKVX it was 0.0625 µM (active); in the assay on NCI-H226, 0.0962 µM (active); with ACHN, 0.0119 µM (active). The GI50 in the assay on U-251 was 0.042 µM (active); with LOX IMVI, 0.216 µM (active); with NCI-H522, 0.0705 µM (active); in the assay with SF-539, 0.0512 µM (active); in the assay on NCI-H23, 0.0457 µM (active); with HL-60 it was 0.027 µM (active). Further, the values for the GI50 with A498 and with MDA-MB-231 were 0.131 µM (active) and 0.0237 µM (active), respectively.
Regarding `NNC(=O)CCCCCCCC(=O)O`, the GI50 in the assay with MDA-MB-435, in the assay on OVCAR-5, with OVCAR-4, in the assay with OVCAR-3, in the assay with TK-10 and in the assay with NCI-H460 was > 100 µM (inactive) each time. Also, the GI50 in the assay on SNB-75, in the assay with MDA-N, in the assay with SN12C, with EKVX, with NCI-H226 and with ACHN was > 100 µM (inactive) in each case. Moreover, the GI50 in the assay with U-251, in the assay with LOX IMVI, in the assay with NCI-H522, with SF-539, in the assay on NCI-H23 and with HL-60 was > 100 µM (inactive) throughout. The GI50 in the assay with A498 and in the assay with MDA-MB-231 was > 100 µM (inactive) each time.
`CO[C@@H]1C=C[C@@]23c4cc5c(cc4C(O)N(CC2O)C3C1)OCO5` (stereo partly specified): the GI50 with MDA-MB-435 is 3.06 µM (inactive); in the assay on OVCAR-5, 4.91 µM (inactive); in the assay on OVCAR-4, 2.8 µM (inactive); with OVCAR-3 it was 4.86 µM (inactive); with TK-10, 4.19 µM (inactive); with NCI-H460, 2.84 µM (inactive). Besides, the GI50 in the assay on SNB-75 is 2.82 µM (inactive); with MDA-N it was 3.2 µM (inactive); in the assay with SN12C it was 4.15 µM (inactive); with EKVX it was 3.86 µM (inactive); in the assay on NCI-H226, 36.5 µM (inactive); in the assay on ACHN, 3.33 µM (inactive). For the same molecule, the GI50 in the assay with U-251 was 3.61 µM (inactive); in the assay with LOX IMVI, 3.52 µM (inactive); in the assay with NCI-H522 it was 3.66 µM (inactive); with SF-539, 9.23 µM (inactive); in the assay with NCI-H23 it was 4.29 µM (inactive); with HL-60 it was 1.8 µM (inactive). Also, the GI50 in the assay on A498 was 3.15 µM (inactive); in the assay on MDA-MB-231, 3.87 µM (inactive).
